In US11377442B2, “Small molecule agonists and antagonists of NR2F6 activity” (ZANDER THERAPEUTICS, INC., priority 2016, dated 2022):
Like-named read-outs stand apart in the source and are kept apart here.

How the values were obtained:
Assay type in all cases: cell-based
[1] = test system: HEK293 pGL4; test: Firefly_pGL signal, cmpd/DMSO (pGL4 control cells); details: Homo sapiens
[2] = target: T1, NR2F6 (Homo sapiens, UniProt P10588); test: NR2F6 agonist screening, Firefly signal cmpd/DMSO
T1 construct: expressed in transfected cells; also transient transfection
T1 sequence (P10588 1-404): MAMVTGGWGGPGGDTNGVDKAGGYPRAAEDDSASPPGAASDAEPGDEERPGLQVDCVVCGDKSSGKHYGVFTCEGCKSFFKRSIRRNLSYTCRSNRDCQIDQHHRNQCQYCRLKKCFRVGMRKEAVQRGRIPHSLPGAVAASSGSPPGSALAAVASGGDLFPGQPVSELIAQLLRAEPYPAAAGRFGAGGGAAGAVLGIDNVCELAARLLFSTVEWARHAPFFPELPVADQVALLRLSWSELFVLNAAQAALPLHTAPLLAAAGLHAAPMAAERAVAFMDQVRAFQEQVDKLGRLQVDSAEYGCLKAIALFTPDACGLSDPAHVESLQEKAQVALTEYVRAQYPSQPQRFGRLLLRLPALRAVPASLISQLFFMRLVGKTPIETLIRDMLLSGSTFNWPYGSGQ

[3] = target: T2, NR2F6 LBD (Homo sapiens, UniProt P10588); test: NR2F6 LBD transient transfection; details: LBD
T2 construct: expressed in transfected cells
T2 sequence (P10588 165-393 limits assumed): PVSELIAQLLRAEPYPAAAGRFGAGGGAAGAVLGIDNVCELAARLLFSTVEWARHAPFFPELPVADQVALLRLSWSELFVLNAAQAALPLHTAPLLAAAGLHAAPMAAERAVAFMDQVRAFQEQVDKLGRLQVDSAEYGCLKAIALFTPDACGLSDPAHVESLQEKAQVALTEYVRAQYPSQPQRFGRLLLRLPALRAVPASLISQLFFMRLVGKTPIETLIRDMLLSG
Procedure, shortened: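 LBD-transfected cells treated at 40, 10, 2 and 0.5 μM (4 replicates); cytotoxicity measured in parallel, normalized to DMSO (0%) and zero signal (100%). Higher concentrations excluded where signal loss reflected toxicity.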

[4] = test system: Renilla; test: Renilla signal in NR2F6 agonist screening, cmpd/DMSO; details: Renilla, F4
[5] = HEK293, 0.5 uM, pGL4, read-out: Firefly pGL4, cmpd/DMSO (mean)
[6] = HEK293, 2 uM, pGL4, read-out: Firefly pGL4, cmpd/DMSO (mean)
[7] = HEK293, 10 uM, pGL4, read-out: Firefly pGL4, cmpd/DMSO (mean)
[8] = HEK293, 40 uM, pGL4, read-out: Firefly pGL4, cmpd/DMSO (mean)
[9] = HEK293, pGL4, 1% FBS, 0.5 uM, read-out: Firefly, pGL4, 1% FBS, cmpd/DMSO (mean)
[10] = HEK293, pGL4, 1% FBS, 2 uM, read-out: Firefly, pGL4, 1% FBS, cmpd/DMSO (mean)
[11] = HEK293, pGL4, 1% FBS, 10 uM, read-out: Firefly, pGL4, 1% FBS, cmpd/DMSO (mean)
[12] = HEK293, pGL4, 1% FBS, 40 uM, read-out: Firefly, pGL4, 1% FBS, cmpd/DMSO (mean)
[13] = HEK293, pGL4, 10% FBS, 0.5 uM, read-out: Firefly, pGL4, 10% FBS, cmpd/DMSO (mean)
[14] = HEK293, pGL4, 10% FBS, 2 uM, read-out: Firefly, pGL4, 10% FBS, cmpd/DMSO (mean)
[15] = HEK293, pGL4, 10% FBS, 10 uM, read-out: Firefly, pGL4, 10% FBS, cmpd/DMSO (mean)
[16] = HEK293, pGL4, 10% FBS, 40 uM, read-out: Firefly, pGL4, 10% FBS, cmpd/DMSO (mean)
[17] = read-out: Renilla, F4, cmpd/DMSO (mean)
[18] = 1% FBS, read-out: Renilla, F4, 1% FBS, cmpd/DMSO (mean)
[19] = 10% FBS, read-out: Renilla, F4, 10% FBS, cmpd/DMSO (mean)

CC(C)N[C@H]1CS(=O)(=O)C[C@@H]1S(=O)(=O)c1ccc(Cl)cc1 [Compound D118]
fold induction at 0.5 µM [1, 5]: 1.2 | fold induction at 2 µM [1, 6]: 1.5 | fold induction at 10 µM [1, 7]: 4.8 | fold induction at 40 µM [1, 8]: 0.4 | fold induction at 0.5 µM [1, 9]: 0.9 | fold induction at 2 µM [1, 10]: 1.2 | fold induction at 10 µM [1, 11]: 2.1 | fold induction at 40 µM [1, 12]: 0.9 | fold induction at 0.5 µM [1, 13]: 1.2 | fold induction at 2 µM [1, 14]: 1.2 | fold induction at 10 µM [1, 15]: 2.9 | fold induction at 40 µM [1, 16]: 8.1 | Firefly F4, cmpd/DMSO (mean) ([2]; 0.5 uM): 1.6 | Firefly F4, cmpd/DMSO (mean) ([2]; 2 uM): 1.6 | Firefly F4, cmpd/DMSO (mean) ([2]; 10 uM): 6.2 | Firefly F4, cmpd/DMSO (mean) ([2]; 40 uM): 2.4 | F4, Firefly/Renilla for S/B(F4) > 3 ([2]; 1% FBS, 10 uM): 3.2 | Firefly, F4/pGL4 for S/B(F4) > 3 ([2]; 1% FBS, 10 uM): 2.5 | F4, Firefly/Renilla for S/B(F4) > 3 ([2]; 10% FBS, 10 uM): 2.1 | Firefly, F4/pGL4 for S/B(F4) > 3 ([2]; 10% FBS, 10 uM): 1.8 | F4, Firefly/Renilla for S/B(F4) > 3 ([2]; 10% FBS, 40 uM): 2.8 | Firefly, F4/pGL4 for S/B(F4) > 3 ([2]; 10% FBS, 40 uM): 1.8 | Firefly, F4, 1% FBS, cmpd/DMSO (mean) ([2]; 1% FBS, 0.5 uM): 1.1 | Firefly, F4, 1% FBS, cmpd/DMSO (mean) ([2]; 1% FBS, 2 uM): 1.4 | Firefly, F4, 1% FBS, cmpd/DMSO (mean) ([2]; 1% FBS, 10 uM): 5.2 | Firefly, F4, 1% FBS, cmpd/DMSO (mean) ([2]; 1% FBS, 40 uM): 0.5 | Firefly, F4, 10% FBS, cmpd/DMSO (mean) ([2]; 10% FBS, 0.5 uM): 1.2 | Firefly, F4, 10% FBS, cmpd/DMSO (mean) ([2]; 10% FBS, 2 uM): 1.3 | Firefly, F4, 10% FBS, cmpd/DMSO (mean) ([2]; 10% FBS, 10 uM): 5.1 | Firefly, F4, 10% FBS, cmpd/DMSO (mean) ([2]; 10% FBS, 40 uM): 15 | Firefly LBD, cmpd/DMSO (mean) ([3]; 0.5 uM): 1.2 | Firefly LBD, cmpd/DMSO (mean) ([3]; 2 uM): 1.8 | Firefly LBD, cmpd/DMSO (mean) ([3]; 10 uM): 3.8 | Firefly LBD, cmpd/DMSO (mean) ([3]; 40 uM): 0.4 | fold induction at 0.5 µM [4, 17]: 1.1 | fold induction at 2 µM [4, 17]: 1.3 | fold induction at 10 µM [4, 17]: 1.7 | fold induction at 40 µM [4, 17]: 1.9 | fold induction at 0.5 µM [4, 18]: 1 | fold induction at 2 µM [4, 18]: 1.1 | fold induction at 10 µM [4, 18]: 1.6 | fold induction at 40 µM [4, 18]: 2.3 | fold induction at 0.5 µM [4, 19]: 1.2 | fold induction at 2 µM [4, 19]: 1.5 | fold induction at 10 µM [4, 19]: 2.5 | fold induction at 40 µM [4, 19]: 5.2

O=S1(=O)C[C@H](NC2CCCCCC2)[C@@H](S(=O)(=O)c2ccc(Cl)cc2)C1 [Compound D130]
fold induction at 0.5 µM [1, 5]: 1.2 | fold induction at 2 µM [1, 6]: 1.8 | fold induction at 10 µM [1, 7]: 3.4 | fold induction at 40 µM [1, 8]: 0.6 | fold induction at 0.5 µM [1, 9]: 1.2 | fold induction at 2 µM [1, 10]: 2 | fold induction at 10 µM [1, 11]: 2 | fold induction at 40 µM [1, 12]: 0.9 | fold induction at 0.5 µM [1, 13]: 1 | fold induction at 2 µM [1, 14]: 1.6 | fold induction at 10 µM [1, 15]: 2.5 | fold induction at 40 µM [1, 16]: 2.5 | Firefly F4, cmpd/DMSO (mean) ([2]; 0.5 uM): 1.4 | Firefly F4, cmpd/DMSO (mean) ([2]; 2 uM): 2.2 | Firefly F4, cmpd/DMSO (mean) ([2]; 10 uM): 4.0 | Firefly F4, cmpd/DMSO (mean) ([2]; 40 uM): 1.6 | F4, Firefly/Renilla for S/B(F4) > 3 ([2]; 1% FBS, 10 uM): 2.3 | Firefly, F4/pGL4 for S/B(F4) > 3 ([2]; 1% FBS, 10 uM): 1.8 | F4, Firefly/Renilla for S/B(F4) > 3 ([2]; 10% FBS, 10 uM): 2.7 | Firefly, F4/pGL4 for S/B(F4) > 3 ([2]; 10% FBS, 10 uM): 1.4 | F4, Firefly/Renilla for S/B(F4) > 3 ([2]; 10% FBS, 40 uM): 2.4 | Firefly, F4/pGL4 for S/B(F4) > 3 ([2]; 10% FBS, 40 uM): 2.0 | Firefly, F4, 1% FBS, cmpd/DMSO (mean) ([2]; 1% FBS, 0.5 uM): 0.7 | Firefly, F4, 1% FBS, cmpd/DMSO (mean) ([2]; 1% FBS, 2 uM): 1.2 | Firefly, F4, 1% FBS, cmpd/DMSO (mean) ([2]; 1% FBS, 10 uM): 3.6 | Firefly, F4, 1% FBS, cmpd/DMSO (mean) ([2]; 1% FBS, 40 uM): 0.6 | Firefly, F4, 10% FBS, cmpd/DMSO (mean) ([2]; 10% FBS, 0.5 uM): 1.1 | Firefly, F4, 10% FBS, cmpd/DMSO (mean) ([2]; 10% FBS, 2 uM): 1.2 | Firefly, F4, 10% FBS, cmpd/DMSO (mean) ([2]; 10% FBS, 10 uM): 3.4 | Firefly, F4, 10% FBS, cmpd/DMSO (mean) ([2]; 10% FBS, 40 uM): 5.0 | Firefly LBD, cmpd/DMSO (mean) ([3]; 0.5 uM): 1.1 | Firefly LBD, cmpd/DMSO (mean) ([3]; 2 uM): 1.7 | Firefly LBD, cmpd/DMSO (mean) ([3]; 10 uM): 3.1 | Firefly LBD, cmpd/DMSO (mean) ([3]; 40 uM): 0.7 | fold induction at 0.5 µM [4, 17]: 1.1 | fold induction at 2 µM [4, 17]: 1.2 | fold induction at 10 µM [4, 17]: 1.5 | fold induction at 40 µM [4, 17]: 1.8 | fold induction at 0.5 µM [4, 18]: 1.1 | fold induction at 2 µM [4, 18]: 1.2 | fold induction at 10 µM [4, 18]: 1.6 | fold induction at 40 µM [4, 18]: 1.9 | fold induction at 0.5 µM [4, 19]: 0.8 | fold induction at 2 µM [4, 19]: 0.9 | fold induction at 10 µM [4, 19]: 1.3 | fold induction at 40 µM [4, 19]: 2.1
